In patent publication US20150218212A1, “FLUORINATED EPOXYKETONE-BASED TETRAPEPTIDE COMPOUNDS AND USES THEREOF AS PROTEASOME INHIBITORS” (FLUORINOV PHARMA INC., priority 2012, published 2015):

Key:
[1] = target: T1, proteasome Caspase-like (C-L) activity (Mus musculus, UniProt P70195+Q60692); assay: Pharmacodynamic proteasome activity in murine red blood cells, C-L; assay type: in vivo, NOD/SCID mice; conditions: iv, mice, 2 mg/kg i.v., time 0, read-out: Caspase-like (C-L) mean residual activity relative to vehicle treated controls
T1 construct: RBCs were lysed with assay lysis buffer and incubated on ice for 30 minutes; from tissue; host or cells: red blood cells of NOD/SCID mice
Protocol: Cells were harvested by centrifugation at 1,200 rpm at room temperature. Cell pellets were washed with PBS (phosphate buffered saline) and lysed with assay lysis buffer (50 mM HEPES (N-2-hydroxyethylpiperazine-N′-2-ethanesulfonic acid), pH 7.5; 150 mM NaCl; 1% Triton X-100; 2 mM ATP). Cell lysates were incubated on ice for 30 minutes, mixed by vortex every 5 minutes, and then centrifuged at 12,000 g for 10 minutes. The supernatant was transferred to a 96-well plate. For each assay, 10 μg of total protein were incubated for 1 hour at 37° C. with increasing concentrations (1 nM to 10 μM) of test compound diluted in assay buffer (50 mM tris-HCl (tris(hydroxymethyl)aminomethane-HCl), pH 7.5; 150 mM NaCl). DMSO alone was used as a control in every assay plate. After incubation, a specific fluorogenic proteasome substrate was added to each assay reaction at a final concentration of 40 μM in a total volume of 100 μL. N-Succinyl-Leu-Leu-Val-Tyr-7-amino-4-methylcoumarin (Suc-Leu-Leu-Val-Tyr-AMC) was used for measuring chymotrypsin-like (CT-L) activity, t-butoxycarbonyl-Leu-Arg-Arg-7-amino-4-methylcoumarin (Boc-Leu-Arg-Arg-AMC) for trypsin-like (T-L) activity, and benzyloxycarbonyl-L-leucyl-L-leucyl-L-glutamyl-7-amino-4-methylcoumarin (Z-Leu-Leu-Glu-AMC) for caspase-like (C-L) activity. The excitation wavelength was set at 360 nm and the fluorescence emission wavelength of AMC was detected at 460 nm. The fluorescence of free AMC released during the enzymatic reaction was measured with a SpectraMax M5 fluorescent spectrophotometric plate reader (Molecular Devices, Sunnyvale, Calif.). AMC release rate was measured at 37° C. in a kinetic mode, recording every 5 minutes for 30 minutes. Experiments were performed in triplicate and repeated at least twice.
All mouse experiments were performed in accordance with approval from the Ontario Cancer Institute institutional animal review board. Five- to six-week-old male non-obese diabetic/severe combined immunodeficient (NOD/SCID) mice were grouped randomly (n=3 mice per group). Mice were administered vehicle (5% DMSO, 20% Cremophor) or compounds of Formula I at different doses either intravenously or by oral gavage, and venous blood samples (20-50 μL) were collected from each mouse over 24 hours. Blood samples were mixed with heparin (APP Pharmaceuticals; Schaumburg, Ill.) in 0.5 mL tubes in accordance with the manufacturer's instructions. After centrifugal separation at 3,000 g for 10 minutes, red blood cells (RBCs) in the bottom layer were transferred into a new tube and stored at −70° C. until use. RBCs were lysed with assay lysis buffer and incubated on ice for 30 minutes, mixing by vortex every 5 minutes, and then centrifuged at 12,000 g for 10 minutes. The supernatant was transferred to a 96-well plate and proteasome activity was measured as described above for tumor cell lysates.
Proteasome subunit activity (Chymotrypsin-like, Trypsin-like, Caspase-like, CT-L, T-L, C-L, respectively) were monitored over the course of 24 hrs following […] administration of representative compounds of Formula I. NOD/SCID mice were treated with compounds of Formula I (2 mg/kg by iv administration) or vehicle control and carfilzomib for up to 24 hours, as described above. Table 9 summarizes the data on pharmacodynamic activity of representative compounds of Formula I following a dose of 2 mg/kg intravenous (i.v) administration to mice. Data are presented as mean residual activity (SEM) relative to vehicle treated controls.

SK-OV-3 = assay: NCI screening panel, SK-OV-3 (Ovarian Cancer); assay type: cell-based, human
Protocol: Representative compounds of Formula I were screened using the National Cancer Institute (NCI) screening panel, which consists of a panel of human tumor cell lines, representing leukemia, melanoma, and cancers of the lung, colon, ovary, breast, prostate and renal system.
After 24 h, two plates of each cell line are fixed in situ with TCA, to represent a measurement of the cell population for each cell line at the time of drug addition (Tz). Experimental drugs are solubilised in dimethyl sulfoxide at 400-fold the desired final maximum test concentration and stored frozen prior to use. At the time of drug addition, an aliquot of frozen concentrate is thawed and diluted to twice the desired final maximum test concentration with complete medium containing 50 μg/mL gentamicin. Additional four, 10-fold or ½ log serial dilutions are made to provide a total of five drug concentrations plus control. Aliquots of 100 μl of these different drug dilutions are added to the appropriate microtiter wells already containing 100 μl of medium, resulting in the required final drug concentrations.
Following drug addition, the plates are incubated for an additional 48 h at 37° C., 5% CO2, 95% air, and 100% relative humidity. For adherent cells, the assay is terminated by the addition of cold TCA (trichloroacetic acid). Cells are fixed in situ by the gentle addition of 50 μl of cold 50% (w/v) TCA (final concentration, 10% TCA) and incubated for 60 minutes at 4° C. The supernatant is discarded, and the plates are washed five times with tap water and air dried. Sulforhodamine B (SRB) solution (100 μl) at 0.4% (w/v) in 1% acetic acid is added to each well, and plates are incubated for 10 minutes at room temperature. After staining, unbound dye is removed by washing five times with 1% acetic acid and the plates are air dried. Bound stain is subsequently solubilised with 10 mM trizma base, and the absorbance is read on an automated plate reader at a wavelength of 515 nm. For suspension cells, the methodology is the same except that the assay is terminated by fixing settled cells at the bottom of the wells by gently adding 50 μl of 80% TCA (final concentration, 16% TCA). Using the seven absorbance measurements [time zero, (Tz), control growth, (C), and test growth in the presence of drug at the five concentration levels (Ti)], the percentage growth is calculated at each of the drug concentrations levels. Percentage growth inhibition is calculated as: [(Ti−Tz)/(C−Tz)]×100 for concentrations for which Ti>/=Tz and [(Ti−Tz)/Tz]×100 for concentrations for which Ti<Tz.
Three dose response parameters are calculated for each experimental agent. Growth inhibition of 50% (GI50) is calculated from [(Ti−Tz)/(C−Tz)]×100=50, which is the drug concentration resulting in a 50% reduction in the net protein increase (as measured by SRB staining) in control cells during the drug incubation. The drug concentration resulting in total growth inhibition (TGI) is calculated from Ti=Tz. The LC50 (concentration of drug resulting in a 50% reduction in the measured protein at the end of the drug treatment as compared to that at the beginning) indicating a net loss of cells following treatment is calculated from [(Ti−Tz)/Tz]×100=−50. Values are calculated for each of these three parameters if the level of activity is reached. However, if the effect is not reached or is exceeded, the value for that parameter is expressed as greater or less than the maximum or minimum concentration tested.

Row | Structure (SMILES) | remaining activity at 2 mg/kg [1] [%] | Log10GI50 (SK-OV-3) | Log10TGI50 (SK-OV-3) | Log10LC50 (SK-OV-3)
1 | CC(C)C[C@H](NC(=O)[C@H](COC(F)F)NC(=O)CN1CCOCC1)C(=O)N[C@@H](COC(F)F)C(=O)N[C@@H](CC(C)C)C(=O)[C@@]1(C)CO1 [Example 1, (2S)—N-[(1S)-1-(difluoromethoxymethyl)-2-[[(1S)-3-methyl-1-[(2R)-2-methyloxirane-2-carbonyl]butyl]amino]-2-oxo-ethyl]-2-[[(2S)-3-(difluoromethoxy)-2-[(2-morpholinoacetyl)amino]propanoyl]amino]-4-methyl-pentanamide] | 100 | −7.15 | −6.36 | –
2 | CC(C)C[C@H](NC(=O)[C@H](COC(F)F)NC(=O)CN1CCOCC1)C(=O)N[C@@H](Cc1ccccc1)C(=O)N[C@@H](CC(C)C)C(=O)[C@@]1(C)CO1 [Example 2, (2S)-N-[(1S)-1-benzyl-2-[[(1S)-3-methyl-1-[(2R)-2-methyloxirane-2-carbonyl]butyl]-amino]-2-oxo-ethyl]-2-[[(2S)-3-(difluoromethoxy)-2-[(2-morpholinoacetyl)amino]propanoyl]amino]-4-methyl-pentanamide] | 100 | −7.15 | −6.21 | >−4.00
3 | CC(C)C[C@H](NC(=O)[C@H](COC(F)F)NC(=O)CN1CCOCC1)C(=O)N[C@@H](Cc1ccccc1)C(=O)N[C@@H](Cc1ccccc1)C(=O)[C@@]1(C)CO1 [Example 3, (2S)-N-[(1S)-1-benzyl-2-[[(1S)-1-benzyl-2-[(2R)-2-methyloxiran-2-yl]-2-oxo-ethyl]amino]-2-oxo-ethyl]-2-[[(2S)-3-(difluoromethoxy)-2-[(2-morpholinoacetyl)-amino]propanoyl]amino]-4-methyl-pentan-amide] | 100 | −7.26 | −6.16 | >−4.00
4 | CC(C)C[C@H](NC(=O)[C@H](COC(F)F)NC(=O)CN1CCOCC1)C(=O)N[C@@H](COC(F)F)C(=O)N[C@@H](Cc1ccccc1)C(=O)[C@@]1(C)CO1 [Example 4, (2S)-N-[(1S)-2-[[(1S)-1-benzyl-2-[(2R)-2-methyloxiran-2-yl]-2-oxo-ethyl]amino]-1-(difluoromethoxymethyl)-2-oxo-ethyl]-2-[[(2S)-3-(difluoromethoxy)-2-[(2-mor-pholinoacetyl)amino]propanoyl]amino]-4 methyl-pentanamide] | 100 | −6.84 | −6.02 | >−4.00
5 | CC(C)C[C@H](NC(=O)[C@H](COC(F)F)NC(=O)[C@H](COC(F)F)NC(=O)[C@H](CCc1ccccc1)NC(=O)CN1CCOCC1)C(=O)[C@@]1(C)CO1 [Example 7, (2S)-N-[(1S)-1-(difluoromethoxymethyl)-2-[[(1S)-1-(difluoromethoxymethyl)-2-[[(1S)-3-methyl-1-[(2R)-2-methyloxirane-2-carbo-nyl]butyl]amino]-2-oxo-ethyl]amino]-2-oxo-ethyl]-2-[(2-morpholinoacetyl)amino]-4-phenyl-butanamide] | 100 | −6.94 | −5.46 | >−4.00
6 | CC(C)C[C@H](NC(=O)[C@H](Cc1ccccc1)NC(=O)[C@H](COC(F)F)NC(=O)[C@H](COC(F)F)NC(=O)CN1CCOCC1)C(=O)[C@@]1(C)CO1 [Example 11, (2S)-2-[[(2S)-3-(difluoromethoxy)-2-[[(2S)-3-(difluoromethoxy)-2-[(2-morpholinoacetyl)-amino]propanoyl]amino]propanoyl]amino]-N-[(1S)-3-methyl-1-[(2R)-2-methyloxirane-2-carbonyl]butyl]-3-phenyl-propanamide] | 100 | −6.85 | −4.84 | >−4.00
7 | CC(C)C[C@H](NC(=O)[C@H](COC(F)F)NC(=O)[C@H](COC(F)F)NC(=O)[C@H](COC(F)F)NC(=O)CN1CCOCC1)C(=O)[C@@]1(C)CO1 [Example 17, (2S)-3-(difluoromethoxy)-N-[(1S)-1-(difluoromethoxymethyl)-2-[[(1S)-1-(difluoro-methoxymethyl)-2-[[(1S)-3-methyl-1-[(2R)-2-methyloxirane-2-carbonyl]butyl]amino]-2-oxo-ethyl]amino]-2-oxo-ethyl]-2-[(2-mor-pholinoacetyl)amino]-propanamide] | 100 | −6.26 | >−4.00 | >−4.00
